The values below are quoted from earlier work in patent publication US20050004032A1, “Collagen mimics” (priority 2003, published 2005).

With (ProProGly)7, the “Tm, temperature at the midpoint of the thermal transition as measured by CD spectroscopy” value (literature values per Table 1 footnotes b-f, some reported for the 10-repeat peptides) is 6-7^c ° C.
(ProProGly)10: the “melting temperature of a triple helix” value (Sakakibara et al. 1973) was 24 °C.
